Calls of active or inactive are those of the source.

Assay [1] in a line: Luminescence-based dose response cell-based high throughput screening assay for cytotoxic compounds using the IEC-6 intestinal epithelial cell line. [Related pubchem assays: 1858 (Summary AID.), 1825 (Counterscreen.), 1907 (Confirmation screen.)]. Type of assay: functional. For orientation: The purpose of a counterscreen is to sort out artefacts and off-target activity.
Assay [2] addresses Serine/threonine-protein phosphatase PP1-alpha catalytic subunit (Homo sapiens, UniProt P62136). Briefly: PP1 phosphatase inhibitors, dose response, biochemical, fluorescence (AID 2394).
Assay [3] has as its target Serine/threonine-protein phosphatase (Homo sapiens, UniProt Q9BPW0). Briefly: PP5 phosphatase inhibitors, dose response, biochemical, fluorescence (AID 2395).
In assay [4] the target is T1, Cytochrome P450 3A4 (Homo sapiens, UniProt P08684). The following applies: Potency.
T1 sequence (P08684 whole entry): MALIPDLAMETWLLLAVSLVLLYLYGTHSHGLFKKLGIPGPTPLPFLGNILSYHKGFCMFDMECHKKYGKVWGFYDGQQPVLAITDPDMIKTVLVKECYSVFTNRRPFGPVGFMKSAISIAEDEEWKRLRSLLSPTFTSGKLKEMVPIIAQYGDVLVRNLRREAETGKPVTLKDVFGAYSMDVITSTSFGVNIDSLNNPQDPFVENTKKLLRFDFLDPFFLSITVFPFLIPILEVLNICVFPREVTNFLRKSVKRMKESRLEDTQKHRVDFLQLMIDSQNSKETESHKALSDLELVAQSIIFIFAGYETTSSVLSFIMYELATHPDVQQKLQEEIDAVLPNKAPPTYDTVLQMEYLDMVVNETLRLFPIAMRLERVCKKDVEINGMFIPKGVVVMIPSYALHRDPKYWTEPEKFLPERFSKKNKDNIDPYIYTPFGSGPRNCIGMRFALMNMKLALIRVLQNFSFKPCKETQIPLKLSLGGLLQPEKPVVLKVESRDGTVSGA
Assay [5] has as its target Voltage-gated inwardly rectifying potassium channel KCNH2 (Homo sapiens, UniProt Q12809). Particulars: Potency.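 Also: confirmatory quantitative high-throughput screen measuring inhibition of hERG channel activity.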
Assay [6] deals with T1, Cytochrome P450 3A4.
For assay [7], the target named is T2, Cytochrome P450 2C19 (Homo sapiens, UniProt P33261). Briefly: qHTS Assay for Inhibitors and Substrates of Cytochrome P450 2C19. [Related pubchem assays: 410 ]. The assay is classed as ADME. The following applies: read-out: Potency. (In qHTS, concentration-response curves come from the screen itself.)
T2 sequence (P33261 whole entry): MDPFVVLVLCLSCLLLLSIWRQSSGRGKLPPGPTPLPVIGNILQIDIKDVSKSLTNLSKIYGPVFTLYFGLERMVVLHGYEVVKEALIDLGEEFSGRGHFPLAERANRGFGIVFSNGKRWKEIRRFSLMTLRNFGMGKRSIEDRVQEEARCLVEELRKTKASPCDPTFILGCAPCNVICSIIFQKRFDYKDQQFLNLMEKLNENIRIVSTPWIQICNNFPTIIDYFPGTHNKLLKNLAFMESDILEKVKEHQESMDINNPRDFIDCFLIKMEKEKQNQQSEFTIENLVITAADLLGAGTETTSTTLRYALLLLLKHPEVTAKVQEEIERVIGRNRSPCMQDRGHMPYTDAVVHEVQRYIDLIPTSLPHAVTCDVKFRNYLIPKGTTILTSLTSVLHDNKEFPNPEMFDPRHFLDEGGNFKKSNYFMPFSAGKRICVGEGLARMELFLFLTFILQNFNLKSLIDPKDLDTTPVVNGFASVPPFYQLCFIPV
The target of another assay is T3, Streptokinase A (Streptococcus pyogenes serotype M1, UniProt P10520).
T3 sequence (P10520 whole entry): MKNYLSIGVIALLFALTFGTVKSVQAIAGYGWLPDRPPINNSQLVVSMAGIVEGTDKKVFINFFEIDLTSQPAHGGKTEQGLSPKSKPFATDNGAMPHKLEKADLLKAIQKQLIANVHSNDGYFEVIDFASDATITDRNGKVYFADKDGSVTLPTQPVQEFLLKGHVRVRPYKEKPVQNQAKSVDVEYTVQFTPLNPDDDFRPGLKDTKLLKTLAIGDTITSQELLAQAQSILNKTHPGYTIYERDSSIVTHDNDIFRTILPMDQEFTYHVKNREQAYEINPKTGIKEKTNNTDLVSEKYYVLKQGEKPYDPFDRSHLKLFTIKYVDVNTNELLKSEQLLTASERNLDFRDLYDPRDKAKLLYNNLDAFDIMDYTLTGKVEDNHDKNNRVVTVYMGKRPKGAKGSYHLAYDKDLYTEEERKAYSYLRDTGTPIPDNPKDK
Briefly: S. pyogenes streptokinase expression inhibitors, potency, dose response, plasminogen activation absorbance, OD405 (AID 1914).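 Also: secreted streptokinase activity via plasminogen activation per viability signal from cell pellet.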 Type of assay: functional, Streptococcus pyogenes M1 GAS.

For assay [8], the system named is Streptococcus sp. 'group A'. Briefly: growth inhibition of control SK(-) GAS strain, dose response, counter-screen for streptokinase expression inhibitor project, luminescence, kanamycin, BacTiterGlo, confirmation (AID 1900). Type of assay: functional, organism-based. The following applies: Streptococcus sp. 'group A'.
The test system of the next assay is Streptococcus. Put plainly: Group A Streptococcus viability loss, dose response, counter-screen for streptokinase expression inhibitor project, luminescence, BacTiterGlo (AID 1915).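 Also: potency for reduction of bacterial viability or growth.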 The assay is classed as functional, organism-based. The following applies: Streptococcus.
The target in assay [9] is T2, Cytochrome P450 2C19. Put plainly: Cytochrome panel assay with activity outcomes. Panel member name: p450-cyp2c19 Compounds with AC50 equal or less than 10 uM are considered active. The assay is classed as functional. Particulars: read-out: AC50.
Assay [10] in a line: cytotoxicity toward NIH3T3 fibroblasts, dose response, counter-screen, cell-based, ATP luminescence, mouse fibroblasts (AID 2010).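 Also: cells exposed to compound for about 90 hours before reading.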 The assay is classed as functional.
The nature of assay [11]: inhibitors of intracellular T. cruzi replication, confirmation, NIH3T3 host cells, beta-gal luminescence (AID 2044).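 Also: intracellular parasites grown in NIH/3T3 mouse fibroblasts as host cells; luminescent beta-galactosidase reporter signal from transgenic T. cruzi replicating inside host cells; inhibitors lower the luminescence signal.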 Type of assay: functional, cell-based.
The target in assay [12] is Dual specificity tyrosine-phosphorylation-regulated kinase 1A (Rattus norvegicus, UniProt Q63470). Type of assay: biochemical, Homo sapiens.
A further assay addresses T4, Insulin-degrading enzyme (Homo sapiens, UniProt P14735).
T4 sequence (P14735 whole entry): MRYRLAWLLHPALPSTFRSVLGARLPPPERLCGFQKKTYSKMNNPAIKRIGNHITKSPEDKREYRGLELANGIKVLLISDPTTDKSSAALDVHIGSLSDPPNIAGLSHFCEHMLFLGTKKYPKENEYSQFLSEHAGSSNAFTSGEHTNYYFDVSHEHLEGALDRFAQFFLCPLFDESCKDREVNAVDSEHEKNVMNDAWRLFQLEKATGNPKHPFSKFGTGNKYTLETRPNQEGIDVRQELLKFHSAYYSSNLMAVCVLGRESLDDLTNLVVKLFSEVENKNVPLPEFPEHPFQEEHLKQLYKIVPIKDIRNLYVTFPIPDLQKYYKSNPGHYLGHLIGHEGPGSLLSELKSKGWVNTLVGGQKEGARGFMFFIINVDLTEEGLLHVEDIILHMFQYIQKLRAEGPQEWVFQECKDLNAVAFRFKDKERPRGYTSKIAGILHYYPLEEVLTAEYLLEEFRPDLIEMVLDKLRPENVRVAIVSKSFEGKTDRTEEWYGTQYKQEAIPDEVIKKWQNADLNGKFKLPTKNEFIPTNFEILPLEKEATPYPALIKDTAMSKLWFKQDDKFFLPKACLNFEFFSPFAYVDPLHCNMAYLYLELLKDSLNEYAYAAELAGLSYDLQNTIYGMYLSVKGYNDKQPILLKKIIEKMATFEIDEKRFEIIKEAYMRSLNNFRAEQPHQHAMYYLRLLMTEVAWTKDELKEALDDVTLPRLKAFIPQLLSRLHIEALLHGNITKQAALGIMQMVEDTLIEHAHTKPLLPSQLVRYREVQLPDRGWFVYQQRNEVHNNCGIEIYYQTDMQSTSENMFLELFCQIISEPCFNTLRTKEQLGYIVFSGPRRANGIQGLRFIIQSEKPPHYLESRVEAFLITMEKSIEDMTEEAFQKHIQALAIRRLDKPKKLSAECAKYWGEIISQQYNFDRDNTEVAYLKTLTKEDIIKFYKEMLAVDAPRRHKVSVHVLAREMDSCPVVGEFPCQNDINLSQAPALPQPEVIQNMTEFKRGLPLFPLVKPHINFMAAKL
Put plainly: Dose Response: Fluorescence polarization-based cell-based high throughput dose response assay for inhibitors of insulin-degrading enzyme (IDE). [Related pubchem assays: 434962 (Primary screen (IDE inhibitors in singlicate)), 449730 (Counterscreen (Cytotoxicity in triplicate)), 435028 (Confirmation (IDE inhibitors in triplicate)), 434984 (Summary …. The assay is classed as functional. In general terms: In fluorescence polarisation assays a small probe gives low polarisation when free and higher when bound to something large.

The nature of assay [13]: Counterscreen for IDE inhibitors: Luminescence-based cell-based high throughput dose response assay to identify compounds that are cytotoxic to HEK cells. [Related pubchem assays: 434962 (Primary screen (IDE inhibitors in singlicate)), 449730 (Counterscreen (Cytotoxicity in triplicate)), 435028 (Confirmation (IDE inhibitors in triplicate)) …. The assay is classed as functional. Particulars: HEK293.

Assay [14] in a line: inhibitors of Bluetongue virus cytopathic effect, confirmation, arbovirus, BSR cells (AID 1250).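 Also: protection from viral cytopathic effect measured as cell viability by ATP luminescence.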 The assay is classed as functional.

Sequence of Serine/threonine-protein phosphatase PP1-alpha catalytic subunit (P62136 whole entry): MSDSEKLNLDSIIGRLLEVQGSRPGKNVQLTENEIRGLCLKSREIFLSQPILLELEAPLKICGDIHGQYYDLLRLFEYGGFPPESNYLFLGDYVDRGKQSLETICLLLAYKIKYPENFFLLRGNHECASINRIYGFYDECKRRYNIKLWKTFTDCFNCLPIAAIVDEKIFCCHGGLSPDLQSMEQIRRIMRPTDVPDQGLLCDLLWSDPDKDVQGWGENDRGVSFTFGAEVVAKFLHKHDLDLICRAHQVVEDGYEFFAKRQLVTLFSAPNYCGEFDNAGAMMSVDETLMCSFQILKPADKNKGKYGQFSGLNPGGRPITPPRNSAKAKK
Sequence of Serine/threonine-protein phosphatase (Q9BPW0 whole entry): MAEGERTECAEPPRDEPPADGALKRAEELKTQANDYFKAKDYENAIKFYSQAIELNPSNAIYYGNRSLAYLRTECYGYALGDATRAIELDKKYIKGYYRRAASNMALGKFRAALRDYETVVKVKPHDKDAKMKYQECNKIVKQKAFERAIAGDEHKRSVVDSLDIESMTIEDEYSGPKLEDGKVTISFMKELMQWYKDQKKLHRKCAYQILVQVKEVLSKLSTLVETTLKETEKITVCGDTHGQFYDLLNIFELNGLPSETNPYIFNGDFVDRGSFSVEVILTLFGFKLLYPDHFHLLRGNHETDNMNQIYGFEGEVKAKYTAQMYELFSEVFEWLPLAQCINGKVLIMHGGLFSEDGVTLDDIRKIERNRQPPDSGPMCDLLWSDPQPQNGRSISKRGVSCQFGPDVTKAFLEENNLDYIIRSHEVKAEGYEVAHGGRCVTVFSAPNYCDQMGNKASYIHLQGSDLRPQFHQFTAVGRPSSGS
Sequence of Voltage-gated inwardly rectifying potassium channel KCNH2 (Q12809 whole entry): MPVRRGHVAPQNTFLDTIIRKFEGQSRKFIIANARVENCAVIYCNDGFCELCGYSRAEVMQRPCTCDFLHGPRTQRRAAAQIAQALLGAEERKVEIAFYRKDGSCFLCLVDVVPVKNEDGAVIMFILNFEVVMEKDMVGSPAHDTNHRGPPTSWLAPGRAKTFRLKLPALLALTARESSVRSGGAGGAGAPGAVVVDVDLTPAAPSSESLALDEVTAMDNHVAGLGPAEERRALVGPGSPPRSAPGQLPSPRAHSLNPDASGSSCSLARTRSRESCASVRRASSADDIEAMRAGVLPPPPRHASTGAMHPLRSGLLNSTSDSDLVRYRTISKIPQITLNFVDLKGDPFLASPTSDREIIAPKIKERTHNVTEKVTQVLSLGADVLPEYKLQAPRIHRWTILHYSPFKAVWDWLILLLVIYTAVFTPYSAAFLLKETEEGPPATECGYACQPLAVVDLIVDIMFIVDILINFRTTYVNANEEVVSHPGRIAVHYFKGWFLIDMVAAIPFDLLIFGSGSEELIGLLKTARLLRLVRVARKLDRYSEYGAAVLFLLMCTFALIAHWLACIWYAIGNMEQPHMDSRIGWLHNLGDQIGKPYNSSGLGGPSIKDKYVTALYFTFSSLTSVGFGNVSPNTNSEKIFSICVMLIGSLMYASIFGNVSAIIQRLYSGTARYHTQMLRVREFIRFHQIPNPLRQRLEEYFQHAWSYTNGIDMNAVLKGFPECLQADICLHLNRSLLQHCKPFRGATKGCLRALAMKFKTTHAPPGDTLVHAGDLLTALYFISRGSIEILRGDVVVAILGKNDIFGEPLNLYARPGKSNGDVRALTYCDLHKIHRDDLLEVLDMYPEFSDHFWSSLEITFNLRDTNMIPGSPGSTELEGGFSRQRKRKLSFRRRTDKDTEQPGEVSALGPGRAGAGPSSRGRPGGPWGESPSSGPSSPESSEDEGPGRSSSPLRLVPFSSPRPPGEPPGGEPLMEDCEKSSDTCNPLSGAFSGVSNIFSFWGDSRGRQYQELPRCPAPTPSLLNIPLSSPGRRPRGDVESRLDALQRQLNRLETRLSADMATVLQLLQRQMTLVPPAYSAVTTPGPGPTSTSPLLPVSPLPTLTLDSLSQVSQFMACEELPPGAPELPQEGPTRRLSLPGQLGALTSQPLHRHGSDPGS

For the molecule `CCN1CCCC1CNC(=O)C1CCN(Cc2nc(-c3cccc(Br)c3)oc2C)CC1` (stereo not drawn), the IC50 (in general, the concentration that gives 50% inhibition) in [1] was 6.51 µM (active).
For `Cc1nnc(NC(=O)C2C3C=CC(O3)C2C(=O)O)s1` (stereo not drawn), the IC50 in [2] and in [3] was > 67 µM (not active) each time.
Consider `CCCN(CC1CC1)c1nc(C)nc(Nc2c(Cl)cc(Cl)cc2Cl)c1Cl`, for which the AC50 on Cytochrome P450 3A4 [4] was 12.6 µM (inconclusive); in [5], 14.1 µM (inconclusive); at Cytochrome P450 3A4 [6], 15.8 µM (inconclusive); on Cytochrome P450 2C19 [7] it was 7.94 µM (inconclusive); on Cytochrome P450 2C19 [9], 31.6 µM (inconclusive). Besides, the results for the EC50 (at Streptokinase A; in assay [8]; in the assay on Streptococcus) were 1.31 µM (active), 1.39 µM (active) and 15.2 µM (active), respectively.
As to `CCN(CC(=O)NCc1cccs1)C(=O)c1ccc([N+](=O)[O-])o1`, the figures for the EC50 (in [10]; in [11]; in “cells”) were > 30 µM (not active), < 0.1 µM (active) and 0.047 µM (active), respectively.
`COc1ccc2c(Cl)c(C(=O)N/N=C3\CCCC(=O)C3)sc2c1`: the AC50 in assay [12] was 1.98 µM (active). Moreover, the IC50 against Insulin-degrading enzyme is reported as > 55.9 µM (not active); in assay [13], 26.2 µM (not active).
As to `CCOC(=O)c1cc2c(N)c(C(=O)c3ccc(Br)cc3)sc2nc1O`, the IC50 in assay [14] was 34 µM (active).

Source of the values: ChEMBL document CHEMBL1201862, “PubChem BioAssay data set” (2004).
